Among the targets are CAMK2A (human) (UniProt Q9UQM7); CSNK1A1 (human) (UniProt P48729); EPHA2 (human) (UniProt P29317); KDR (human) (UniProt P35968); MAPK10 (human) (UniProt P53779); PIK3C2B (human) (UniProt O00750); PIM3 (human) (UniProt Q86V86); PTK2 (human) (UniProt Q05397); STK25 (human) (UniProt O00506).
What all share (assay): KINOMEscan competition binding
What all share (conditions): compound 10.0 µM

The structures appear in SMILES notation.

This passage reports kinase still bound, per cent of control results from the kinase profiling compilation of Christmann-Franck et al. (2016).

Chain of PIK3C2B (human) (O00750 whole entry, looked up): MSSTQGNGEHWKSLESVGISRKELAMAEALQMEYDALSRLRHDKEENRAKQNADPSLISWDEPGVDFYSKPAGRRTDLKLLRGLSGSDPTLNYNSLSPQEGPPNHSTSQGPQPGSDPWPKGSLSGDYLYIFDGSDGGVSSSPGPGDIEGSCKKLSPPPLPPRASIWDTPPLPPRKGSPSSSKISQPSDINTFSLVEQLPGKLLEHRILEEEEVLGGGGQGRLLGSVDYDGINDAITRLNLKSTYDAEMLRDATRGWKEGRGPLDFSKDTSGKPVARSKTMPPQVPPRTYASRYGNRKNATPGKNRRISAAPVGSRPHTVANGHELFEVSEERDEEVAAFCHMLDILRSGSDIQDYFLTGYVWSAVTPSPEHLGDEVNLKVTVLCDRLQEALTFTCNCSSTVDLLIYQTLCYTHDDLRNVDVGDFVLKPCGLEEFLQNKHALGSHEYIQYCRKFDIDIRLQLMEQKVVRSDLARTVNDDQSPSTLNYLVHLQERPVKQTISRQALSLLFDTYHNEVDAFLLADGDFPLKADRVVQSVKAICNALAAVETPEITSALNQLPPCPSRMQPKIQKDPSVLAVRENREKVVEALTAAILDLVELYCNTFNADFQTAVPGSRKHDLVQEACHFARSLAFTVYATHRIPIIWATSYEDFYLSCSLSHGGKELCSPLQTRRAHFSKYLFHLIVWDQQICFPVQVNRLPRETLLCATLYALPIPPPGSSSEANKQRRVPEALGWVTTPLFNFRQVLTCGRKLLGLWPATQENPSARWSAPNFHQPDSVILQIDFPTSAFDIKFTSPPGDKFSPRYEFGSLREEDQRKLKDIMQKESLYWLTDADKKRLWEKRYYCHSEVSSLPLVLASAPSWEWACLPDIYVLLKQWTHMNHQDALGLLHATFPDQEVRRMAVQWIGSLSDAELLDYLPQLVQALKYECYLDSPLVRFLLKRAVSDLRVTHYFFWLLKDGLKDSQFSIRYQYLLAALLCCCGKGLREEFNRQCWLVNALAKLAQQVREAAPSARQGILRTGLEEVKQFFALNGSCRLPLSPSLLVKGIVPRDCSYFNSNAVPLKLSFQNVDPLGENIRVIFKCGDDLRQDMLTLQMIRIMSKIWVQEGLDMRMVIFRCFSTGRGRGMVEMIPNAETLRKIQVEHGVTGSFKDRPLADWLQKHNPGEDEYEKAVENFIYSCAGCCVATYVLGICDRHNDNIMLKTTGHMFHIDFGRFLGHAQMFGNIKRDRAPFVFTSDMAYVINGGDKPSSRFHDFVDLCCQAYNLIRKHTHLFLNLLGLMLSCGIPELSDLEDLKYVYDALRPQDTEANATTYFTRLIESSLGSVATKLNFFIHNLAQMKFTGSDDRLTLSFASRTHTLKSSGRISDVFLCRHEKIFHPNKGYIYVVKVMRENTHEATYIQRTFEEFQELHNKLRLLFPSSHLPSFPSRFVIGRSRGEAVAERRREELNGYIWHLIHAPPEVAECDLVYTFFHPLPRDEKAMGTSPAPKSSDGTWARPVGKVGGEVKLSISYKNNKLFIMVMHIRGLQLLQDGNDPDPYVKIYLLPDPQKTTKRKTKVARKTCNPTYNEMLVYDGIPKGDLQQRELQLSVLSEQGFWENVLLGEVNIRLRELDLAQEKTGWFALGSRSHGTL
Chain of PTK2 (human) (Q05397 whole entry, looked up): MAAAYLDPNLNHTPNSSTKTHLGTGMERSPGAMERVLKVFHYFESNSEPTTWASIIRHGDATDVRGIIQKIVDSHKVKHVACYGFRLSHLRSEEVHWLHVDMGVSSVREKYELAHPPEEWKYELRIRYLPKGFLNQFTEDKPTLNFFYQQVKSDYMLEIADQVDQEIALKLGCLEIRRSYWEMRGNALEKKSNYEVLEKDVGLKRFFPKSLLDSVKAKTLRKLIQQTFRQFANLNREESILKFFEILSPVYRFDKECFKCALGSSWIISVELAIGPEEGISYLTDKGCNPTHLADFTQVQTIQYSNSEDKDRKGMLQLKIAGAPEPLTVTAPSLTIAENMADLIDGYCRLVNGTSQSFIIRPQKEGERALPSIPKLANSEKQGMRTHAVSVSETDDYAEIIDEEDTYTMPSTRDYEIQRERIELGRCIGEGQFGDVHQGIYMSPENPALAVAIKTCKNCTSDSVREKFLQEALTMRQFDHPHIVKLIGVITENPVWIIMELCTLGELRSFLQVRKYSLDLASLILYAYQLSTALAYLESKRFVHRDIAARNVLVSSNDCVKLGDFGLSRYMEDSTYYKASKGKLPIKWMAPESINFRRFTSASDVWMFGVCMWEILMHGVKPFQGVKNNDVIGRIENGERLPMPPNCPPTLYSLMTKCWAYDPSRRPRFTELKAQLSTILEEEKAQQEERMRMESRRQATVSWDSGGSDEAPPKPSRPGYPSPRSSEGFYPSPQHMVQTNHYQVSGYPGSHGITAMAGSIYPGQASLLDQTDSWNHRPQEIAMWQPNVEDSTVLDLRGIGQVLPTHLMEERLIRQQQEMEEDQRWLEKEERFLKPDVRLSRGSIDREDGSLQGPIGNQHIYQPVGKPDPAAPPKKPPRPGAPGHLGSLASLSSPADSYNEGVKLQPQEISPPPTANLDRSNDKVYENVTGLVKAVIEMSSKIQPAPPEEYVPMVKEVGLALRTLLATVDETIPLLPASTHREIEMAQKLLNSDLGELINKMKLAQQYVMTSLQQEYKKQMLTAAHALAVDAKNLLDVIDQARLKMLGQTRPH
Chain of STK25 (human) (O00506 whole entry, looked up): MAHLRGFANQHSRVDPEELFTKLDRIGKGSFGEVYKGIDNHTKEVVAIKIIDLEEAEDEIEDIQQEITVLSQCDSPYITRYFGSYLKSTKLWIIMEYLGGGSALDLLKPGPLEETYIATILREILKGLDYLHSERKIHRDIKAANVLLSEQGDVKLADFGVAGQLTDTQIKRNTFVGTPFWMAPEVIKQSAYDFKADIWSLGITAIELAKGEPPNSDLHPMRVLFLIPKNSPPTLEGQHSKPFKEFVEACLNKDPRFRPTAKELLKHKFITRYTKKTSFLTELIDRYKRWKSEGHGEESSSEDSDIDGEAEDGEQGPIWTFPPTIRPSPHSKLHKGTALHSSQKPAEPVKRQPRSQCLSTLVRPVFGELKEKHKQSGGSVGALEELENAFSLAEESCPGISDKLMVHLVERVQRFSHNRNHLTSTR
Chain of MAPK10 (human) (P53779 whole entry, looked up): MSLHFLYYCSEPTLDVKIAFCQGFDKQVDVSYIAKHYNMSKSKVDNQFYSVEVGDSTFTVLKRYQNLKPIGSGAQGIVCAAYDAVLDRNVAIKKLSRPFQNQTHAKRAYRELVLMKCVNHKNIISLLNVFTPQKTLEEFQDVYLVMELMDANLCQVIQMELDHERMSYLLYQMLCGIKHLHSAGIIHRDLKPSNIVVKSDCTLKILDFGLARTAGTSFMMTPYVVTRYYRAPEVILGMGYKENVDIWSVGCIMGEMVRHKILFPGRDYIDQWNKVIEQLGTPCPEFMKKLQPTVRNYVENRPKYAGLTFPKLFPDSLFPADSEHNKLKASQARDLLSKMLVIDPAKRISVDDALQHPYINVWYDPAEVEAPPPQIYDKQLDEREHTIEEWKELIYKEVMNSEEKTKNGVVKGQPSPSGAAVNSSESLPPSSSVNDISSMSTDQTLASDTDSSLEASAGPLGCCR
Chain of CSNK1A1 (human) (P48729 whole entry, looked up): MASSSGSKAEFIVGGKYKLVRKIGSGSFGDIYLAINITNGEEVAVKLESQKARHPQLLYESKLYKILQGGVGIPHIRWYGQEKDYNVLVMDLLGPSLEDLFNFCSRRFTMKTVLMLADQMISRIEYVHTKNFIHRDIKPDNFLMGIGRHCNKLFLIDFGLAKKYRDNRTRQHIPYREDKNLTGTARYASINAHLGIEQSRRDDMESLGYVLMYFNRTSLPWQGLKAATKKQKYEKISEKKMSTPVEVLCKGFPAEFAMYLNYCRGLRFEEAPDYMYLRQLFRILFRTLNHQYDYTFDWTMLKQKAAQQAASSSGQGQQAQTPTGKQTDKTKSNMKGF
Chain of CAMK2A (human) (Q9UQM7 whole entry, looked up): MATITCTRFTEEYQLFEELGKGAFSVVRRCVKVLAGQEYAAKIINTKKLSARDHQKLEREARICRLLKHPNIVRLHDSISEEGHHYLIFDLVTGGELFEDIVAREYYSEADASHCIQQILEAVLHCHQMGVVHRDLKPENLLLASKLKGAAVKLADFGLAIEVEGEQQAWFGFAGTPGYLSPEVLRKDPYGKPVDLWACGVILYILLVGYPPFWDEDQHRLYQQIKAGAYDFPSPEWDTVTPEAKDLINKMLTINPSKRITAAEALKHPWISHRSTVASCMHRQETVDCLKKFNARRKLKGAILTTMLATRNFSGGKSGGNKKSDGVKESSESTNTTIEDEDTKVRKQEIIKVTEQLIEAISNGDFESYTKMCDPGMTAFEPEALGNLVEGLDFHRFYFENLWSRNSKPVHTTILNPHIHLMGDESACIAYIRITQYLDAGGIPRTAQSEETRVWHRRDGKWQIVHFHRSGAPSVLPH

Take `O=C(Nc1ccc(Oc2ncnc3[nH]ncc23)cc1)Nc1ccc(Cl)c(C(F)(F)F)c1`: the kinase still bound, per cent of control turned out to be 90% at CAMK2A (human); 100% at CSNK1A1 (human); 37% at EPHA2 (human); 0% on KDR (human); 74% on MAPK10 (human); 80% on PIK3C2B (human). For the same molecule, the kinase still bound, per cent of control at PIM3 (human) was 94%; on PTK2 (human), 94%; at STK25 (human), 79%.
